From US6500824B1, “Kappa (OP2) opioid receptor antagonists” (Regents of the University of Minnesota, priority 1998, dated 2002)
Read-outs that look alike come from different tables or passages of the source.

Key:
wt μ receptor [1] = molecular target: T1, wt μ receptor (Rattus norvegicus, UniProt P33535); experiment: Competition binding with [3H]diprenorphine, whole cell binding, COS-7 cells, wt μ
T1 construct: expressed in transfected cells; host or cells: COS-7 (per the earlier reading)
Excerpt: (§1) The effects of mutational exchange of Glu297 in the κ receptor and Lys303 in the μ receptor on the binding affinity of representative compounds of the invention were examined using techniques known in the art.

wt μ receptor [2] = experiment: as above; set-up: species or system rat; settings: wt μ
Excerpt: as §1

δ(OP1) opioid receptor = molecular target: T2, δ(OP1) opioid receptor (Mus musculus, UniProt P32300); experiment: Mouse vas deferens (MVD) smooth muscle assay, antagonism of DADLE; type: cell-based
T2 construct: Both vasa deferentia were dissected out of mice and mounted singly; from tissue; host or cells: mouse vas deferens
Procedure: 2. Mouse Vas Deferens (MvD). This assay was performed according to the description by G. Henderson et al., Brit. J. Pharmacol., 1972, 46,764. Both vasa deferentia were dissected out of mice and mounted singly through two platinum electrodes in a 10 ml organ bath. The bath contained Krebs bicarbonate solution that was continuously bubbled with 95% O2 and 5% CO2. The organ bath was maintained at 37° C. The tissue was attached to an isometric transducer and stimulated transmurally with rectangular pulses ([…], 1 ms duration, supramaximal voltage). Drugs were added cumulatively to the bath in preselected amounts and washed out after noting their maximum effects.
(§2) The standard agonists employed were [D-Ala^2, D-Leu^5]enkephalin (DADLE) (D), morphine (M) and ethylketazocine (EKC); these are selective for delta (D), mu (M) and kappa (EKC) opioid receptors, respectively. Concentration-response curves were obtained in the absence (control) and the presence of the antagonist and were determined as IC50 values. The IC50 ratio represents the IC50 in the presence of the antagonist divided by the control IC50 value in the same tissue. A concentration independent value of antagonist potency is calculated from the equation, Ke=[antagonist]/(IC50 ratio-1).

κ[E297K] receptor = molecular target: T3, κ[E297K] receptor (Rattus norvegicus, UniProt P34975, E297K); experiment: Competition binding with [3H]diprenorphine, whole cell binding, COS-7 cells, κ[E297K]
T3 construct: expressed in transfected cells; host or cells: COS-7 (per the earlier reading)
Excerpt: as §1

μ[K303E] receptor = molecular target: T4, μ[K303E] receptor (Rattus norvegicus, UniProt P33535, K303E); experiment: Competition binding with [3H]diprenorphine, whole cell binding, COS-7 cells, μ[K303E]
T4 construct: expressed in transfected cells; host or cells: COS-7 (per the earlier reading)
Excerpt: as §1

wt κ receptor = molecular target: T5, wt κ receptor (Rattus norvegicus, UniProt P34975); experiment: Competition binding with [3H]diprenorphine, whole cell binding, COS-7 cells, wt κ
T5 construct: expressed in transfected cells; host or cells: COS-7 (per the earlier reading)
Excerpt: as §1

[3] = molecular target: T6, kappa (OP2) opioid receptor (Cavia porcellus, UniProt P41144); experiment: Guinea pig ileal longitudinal muscle (GPI) smooth muscle assay, antagonism of ethylketazocine (EKC); type: cell-based
T6 construct: a strip of longitudinal muscle with the myenteric plexus attached was prepared; from tissue; host or cells: guinea pig ileal longitudinal muscle with myenteric plexus
Procedure: (§3) 1. Guinea Pig Ileal Longitudinal Muscle (GPI). Ilea from guinea pigs were taken approximately 10 cm from the ileocecal junction, and a strip of longitudinal muscle with the myenteric plexus attached was prepared by the method of H. B. Rang et al., Brit. J Pharmacol., 1964, 22, 356. A 1 cm portion of this strip was then mounted between two platinum electrodes placed in a 10 ml organ bath and connected to an isometric transducer, contractions were recorded on a polygraph. Contractions of the ileal strip were initiated by supramaximal rectangular pulses in all preparations (80 V of 0.5 ms duration at a frequency of 0.1 Hz). Krebs bicarbonate solution containing […] chloropheniramine maleate was the bathing solution and was continuously bubbled with 95% O2 and 5% CO2. The organ bath was maintained at 36-37° C. The longitudinal strip was allowed to equilibrate with continuous stimulation for a minimum of 90 min. Cumulative concentration-response curves were determined after drugs were added to the bath in preselected amounts and washed out with buffer after noting their maximum effects.
as §2

μ(OP3) opioid receptor = experiment: Guinea pig ileal longitudinal muscle (GPI) smooth muscle assay, antagonism of morphine; type: cell-based; settings: agonist morphine, antagonist concentration 100 nM
Procedure: as §3, §2

kappa opioid receptor = molecular target: T7, kappa opioid receptor (Cavia porcellus, UniProt P41144); experiment: GPI preparation, kappa antagonist potency against U-50488H; type: cell-based, guinea pig; settings: GPI; agonist U-50488H; read-out: Ke
T7 construct: a strip of longitudinal muscle with the myenteric plexus attached was prepared; from tissue; host or cells: guinea pig ileal longitudinal muscle with myenteric plexus
Procedure: as §3

[4] = GPI, agonist EKC, antagonist concentration 100 nM, read-out: Antagonist Potency Ke κ(OP2) EKC

Structure (SMILES): N#C/N=C(\N)Nc1ccc2[nH]c3c(c2c1)C[C@@]1(O)C2Cc4ccc(O)c5c4[C@@]1(CCN2CC1CC1)C3O5 (stereo partly drawn) [Compound 19, 5′-N′-Cyano-N-[17-(cyclopropylmethyl)-6,7-didehydro4.5α-epoxy-3,14-dihydroxyindolo[2′,3′:6,7]morphinian]-Guanidine]
- Ki (wt μ receptor [1]): 4.04 ± 1.23 nM
- Fmut = mutational factor, Ki(mutant receptor)/Ki(wt κ receptor) (wt μ receptor [2]): 15
- Kb (δ(OP1) opioid receptor): 9.08 nM
- Ki (κ[E297K] receptor): 2.48 ± 0.82 nM
- Fmut = mutational factor, Ki(mutant receptor)/Ki(wt κ receptor) (κ[E297K] receptor; κ[E297K]): 9.2
- Ki (μ[K303E] receptor): 0.29 ± 0.05 nM
- Fmut = mutational factor, Ki(mutant receptor)/Ki(wt κ receptor) (μ[K303E] receptor; μ[K303E]): 1.1
- Ki (wt κ receptor): 0.27 ± 0.01 nM
- Fana = Ki(analog)/Ki(nor-BNI on the wt κ receptor) (wt κ receptor; wt κ): 2.25
- Kb [3]: 3.13 nM
- kappa opioid receptor selectivity (in words) ([3]; in vitro, versus morphine and DADLE antagonism): demonstrated selectivity
- Antagonist Potency Ke μ(OP3) Morphine (μ(OP3) opioid receptor): 16.13 nM

Structure (SMILES): CN(C)CCCN/C(=N\C#N)Nc1ccc2[nH]c3c(c2c1)C[C@@]1(O)C2Cc4ccc(O)c5c4[C@@]1(CCN2CC1CC1)C3O5 (stereo partly drawn) [Compound 20, 5′-N-Cyano-N′-[3-(dimethylaminopropyl)]-N″-[17-(cyclopropylmethyl)6,7-didehydro4,5α-epoxy-3,14-dihydroxyindolo[2′,3′:6,7]morphinian]-guanidine]
- Kb [3]: 0.24 nM
- Antagonist Potency Ke μ(OP3) Morphine (μ(OP3) opioid receptor): 10.4 nM

Structure (SMILES): N#C/N=C(\NCCN1CCCC1)Nc1ccc2[nH]c3c(c2c1)C[C@@]1(O)C2Cc4ccc(O)c5c4[C@@]1(CCN2CC1CC1)C3O5 (stereo partly drawn) [Compound 21, 5′-N-Cyano-N′-[2-(1-aminoethylpyrrolidine)]-N″-[17-(cyclopropylmethyl)-6,7-didehydro4,5α-epoxy-3,14dihydroxyindolo[2′,3′:6,7]morphinian]-guanidine]
- Kb (δ(OP1) opioid receptor): 127 nM
- Kb [3]: 0.47 nM
- Antagonist Potency Ke μ(OP3) Morphine (μ(OP3) opioid receptor): 5.71 nM

Structure (SMILES): Oc1ccc2c3c1O[C@H]1c4[nH]c5ccccc5c4C[C@@]4(O)[C@@H](C2)N(CC2CC2)CC[C@]314 [Naltrindole (NTI) 1, naltrindole, reference compound]
- Kb [3, 4]: 45 nM

Structure (SMILES): Oc1ccc2c3c1O[C@H]1c4[nH]c5c(c4C[C@@]4(O)[C@@H](C2)N(CC2CC2)CC[C@]314)C[C@@]1(O)[C@H]2Cc3ccc(O)c4c3[C@@]1(CCN2CC1CC1)[C@H]5O4 [nor-BNI, norbinaltorphimine, reference compound]
- Ki (κ[E297K] receptor; [3H]diprenorphine competition, COS-7 whole cell binding, read-out: Ki ± SEM, κ[E297K]): 12.5 ± 0.92 nM
- Ki (wt κ receptor; [3H]diprenorphine competition, COS-7 whole cell binding, read-out: Ki ± SEM, wt κ): 0.12 ± 0.04 nM
- Kb [3, 4]: 0.56 nM
- Antagonist Potency Ke μ(OP3) Morphine (μ(OP3) opioid receptor): 13.7 nM
- Kb (kappa opioid receptor): 0.2 nM
